Test results from patent US20240132431A1, “METHOD FOR ALKYLATING ACIDIC FUNCTIONAL GROUP” (Chugai Seiyaku Kabushiki Kaisha, priority 2021, published 2024).

Biological target: T1, Bcl-2 protein (Recombinant Human Bcl-2 Protein) (Homo sapiens, UniProt P10415)
T1 construct: purchased Novus NBP2-34889
Experiment: Binding evaluation of mixture library compounds to Bcl-2 using AS-MS (affinity selection mass spectrometry)
Conditions: for ASMS ratio (%) n = 1 / ASMS ratio (%) n = 2: ASMS Ratio(%)=(A−C)/B×100; for ASMS ratio (%) n = 1: replicate n = 1; for ASMS ratio (%) n = 2: replicate n = 2
In short: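 Affinity selection MS: Bcl-2 20 μM + 1200-cpd mixture, […]/cpd, Tris pH 7.4 buffer w/ Tween-20, DTT; 1 h 23° C dark; P-2 spin SEC; MeCN/MeOH extraction; RP LC/MS. ASMS Ratio(%) = (A−C)/B×100.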

[1] = AS-MS on the mixture of 1200 library compounds
[2] = AS-MS, mixture of 1200 compounds, Bcl-2

T1 sequence (P10415 whole entry): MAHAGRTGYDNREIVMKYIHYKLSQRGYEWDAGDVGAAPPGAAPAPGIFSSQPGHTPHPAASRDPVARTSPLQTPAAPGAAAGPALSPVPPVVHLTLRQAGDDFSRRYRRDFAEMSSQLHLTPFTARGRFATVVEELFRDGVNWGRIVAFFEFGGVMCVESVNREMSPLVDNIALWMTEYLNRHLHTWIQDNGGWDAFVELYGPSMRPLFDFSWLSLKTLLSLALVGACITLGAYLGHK

CCOc1cncc(-c2cc(C(=O)N3CCN(c4ccc(C(=O)N(C)CC56CC7CC(CC(C7)C5)C6)cc4)CC3)cc(C(C)(C)C)c2)c1 [B3A038-01, N-(1-Adamantylmethyl)-4-[4-[3-tert-butyl-5-(5-ethoxypyridin-3-yl)benzoyl]piperazin-1-yl]-N-methylbenzamide]
ASMS ratio (%) n = 1 [1]: 2.5% | ASMS ratio (%) n = 2 [1]: −2.9%

CCOc1cncc(-c2cnn(-c3cc(C(=O)N4CCN(c5ccc(C(=O)Nc6ccc(OC)cc6)nn5)CC4)cc(C(F)(F)F)c3)c2)c1 [B1O022-01, 6-[4-[3-[4-(5-Ethoxypyridin-3-yl)pyrazol-1-yl]-5-(trifluoromethyl)benzoyl]piperazin-1-yl]-N-(4-methoxyphenyl)pyridazine-3-carboxamide]
ASMS ratio (%) n = 1 [1]: 5.6% | ASMS ratio (%) n = 2 [1]: −1.2%

CCOc1cccc(-c2cc(CN3CCN(c4ccc(C(=O)NS(=O)(=O)C(C)(C)C)nn4)CC3)cc(C(F)(F)F)c2)c1 [B2L087-01, N-tert-Butylsulfonyl-6-[4-[[3-(3-ethoxyphenyl)-5-(trifluoromethyl)phenyl]methyl]piperazin-1-yl]pyridazine-3-carboxamide]
ASMS ratio (%) (n = 1): 1.9% | ASMS ratio (%) (n = 2): −24.6%

CCOc1cncc(-c2ccc(CN3CCN(c4ccc(C(=O)NS(=O)(=O)c5ccc(NCCSc6ccccc6)c([N+](=O)[O-])c5)nn4)CC3)cc2F)c1 [B2Q078-01]
ASMS ratio (%) n = 1 (AS-MS, mixture library, Bcl-2): 15.6% | ASMS ratio (%) n = 2 (AS-MS, mixture library, Bcl-2): 12.1%

CCOc1cncc(-c2ccc(CN3CCN(c4ccc(C(=O)N(C)CC56CC7CC(CC(C7)C5)C6)cc4)CC3)c(CC)c2)c1 [B3A050-01, N-(1-Adamantylmethyl)-4-[4-[[4-(5-ethoxypyridin-3-yl)-2-ethylphenyl]methyl]piperazin-1-yl]-N-methylbenzamide]
ASMS ratio (%) n = 1 [1]: 6.1% | ASMS ratio (%) n = 2 [1]: −4.3%

CCOc1cncc(-c2cc(CN3CCN(c4ccc(C(=O)NCC(F)(F)F)nn4)CC3)cc(OC(C)C)c2)c1 [B1K084-01, 6-[4-[[3-(5-Ethoxypyridin-3-yl)-5-propan-2-yloxyphenyl]methyl]piperazin-1-yl]-N-(2,2,2-trifluoroethyl)pyridazine-3-carboxamide]
ASMS ratio (%) n = 1 [2]: 0.0% | ASMS ratio (%) n = 2 [2]: 0.0%

CCOc1cncc(-c2cc(CN3CCN(c4ccc(C(=O)NCC56CC7CC(CC(C7)C5)C6)cc4)CC3)cc(OC(C)C)c2)c1 [B1A058-01, N-(1-Adamantylmethyl)-4-[4-[[3-(5-ethoxypyridin-3-yl)-5-propan-2-yloxyphenyl]methyl]piperazin-1-yl]benzamide]
ASMS ratio (%) n = 2 [2]: 0.0%

CCOc1cccc(-c2cc(OC)c(CN3CCN(c4ccc(C(=O)NS(=O)(=O)CCC(F)(F)F)cc4)CC3)c(OC)c2)c1 [B2N059-01, 4-[4-[[4-(3-Ethoxyphenyl)-2,6-dimethoxyphenyl]methyl]piperazin-1-yl]-N-(3,3,3-trifluoropropylsulfonyl)benzamide]
ASMS ratio (%) (n = 1): 0.0% | ASMS ratio (%) (n = 2): 0.0%

CCOc1cccc(-c2cnn(-c3cc(C(=O)N4CCN(c5ccc(C(=O)Nc6ccc(OC)cc6)nn5)CC4)cc(C(F)(F)F)c3)c2)c1 [B1O021-01, 6-[4-[3-[4-(3-Ethoxyphenyl)pyrazol-1-yl]-5-(trifluoromethyl)benzoyl]piperazin-1-yl]-N-(4-methoxyphenyl)pyridazine-3-carboxamide]
ASMS ratio (%) n = 1 [1]: 2.9% | ASMS ratio (%) n = 2 [1]: −1.2%

CCOc1cncc(C#Cc2cc(C(=O)N3CCN(c4ccc(C(=O)NS(=O)(=O)CC56CC7CC(CC(C7)C5)C6)cc4)CC3)cc(C(F)(F)F)c2)c1 [B2A042-01, N-(1-Adamantylmethylsulfonyl)-4-[4-[3-[2-(5-ethoxypyridin-3-yl)ethynyl]-5-(trifluoromethyl)benzoyl]piperazin-1-yl]benzamide]
ASMS ratio (%) n = 1 (AS-MS, mixture library, Bcl-2): 10.1% | ASMS ratio (%) n = 2 (AS-MS, mixture library, Bcl-2): −0.9%

CCOc1cncc(-c2ccc(C(C)N3CCN(c4ccc(C(=O)NS(C)(=O)=O)cc4)CC3)c(F)c2)c1 (stereo not shown) [B2I100-01, 4-[4-[1-[4-(5-Ethoxypyridin-3-yl)-2-fluorophenyl]ethyl]piperazin-1-yl]-N-methylsulfonylbenzamide]
ASMS ratio (%) (n = 1): 0.0% | ASMS ratio (%) (n = 2): 0.0%

CCOc1cccc(-c2ccccc2CCC(=O)N2CCN(c3ccc(C(=O)Nc4ccc(OC)cc4)nn3)CC2)c1 [B1O011-01, 6-[4-[3-[2-(3-Ethoxyphenyl)phenyl]propanoyl]piperazin-1-yl]-N-(4-methoxyphenyl)pyridazine-3-carboxamide]
ASMS ratio (%) n = 1 [1]: 0.0% | ASMS ratio (%) n = 2 [1]: 4.3%

CCOc1cccc(-c2ccc(CN3CCN(c4ccc(C(=O)NS(=O)(=O)CCC(F)(F)F)nn4)CC3)c(OC)c2)c1 [B2N079-01]
ASMS ratio (%) (n = 1): 0.0% | ASMS ratio (%) (n = 2): 0.0%

CCOc1cccc(-c2cc(CN3CCN(c4ccc(C(=O)NS(C)(=O)=O)cc4)CC3)cc(OC(F)(F)F)c2)c1 [B2I063-01, 4-[4-[[3-(3-Ethoxyphenyl)-5-(trifluoromethoxy)phenyl]methyl]piperazin-1-yl]-N-methylsulfonylbenzamide]
ASMS ratio (%) (n = 1): 0.9% | ASMS ratio (%) (n = 2): 0.0%

CCOc1cccc(-c2ccccc2CCC(=O)N2CCN(c3ccc(C(=O)NS(=O)(=O)c4ccc(NCCSc5ccccc5)c([N+](=O)[O-])c4)nn3)CC2)c1 [B2Q011-01, 6-[4-[3-[2-(3-Ethoxyphenyl)phenyl]propanoyl]piperazin-1-yl]-N-[3-nitro-4-(2-phenylsulfanylethylamino)phenyl]sulfonylpyridazine-3-carboxamide]
ASMS ratio (%) n = 1 (AS-MS, mixture library, Bcl-2): 25.0% | ASMS ratio (%) n = 2 (AS-MS, mixture library, Bcl-2): −1.1%

CCOc1cccc(-c2ccccc2CN2CCN(c3ccc(C(=O)NS(=O)(=O)C(C)(C)C)nn3)CC2)c1 [B2L071-01, N-tert-Butylsulfonyl-6-[4-[[2-(3-ethoxyphenyl)phenyl]methyl]piperazin-1-yl]pyridazine-3-carboxamide]
ASMS ratio (%) (n = 1): 1.2% | ASMS ratio (%) (n = 2): 0.0%

CCOc1cccc(C#Cc2ccccc2CN2CCN(c3ccc(C(=O)NS(=O)(=O)c4ccc(NCCSc5ccccc5)c([N+](=O)[O-])c4)cc3)CC2)c1 [B2Q069-01]
ASMS ratio (%) n = 1 (AS-MS, mixture library, Bcl-2): 8.8% | ASMS ratio (%) n = 2 (AS-MS, mixture library, Bcl-2): 11.0%

CCOc1cccc(-c2ccccc2CN2CCN(c3ccc(C(=O)NCC(F)(F)F)nn3)CC2)c1 [B1K071-01, 6-[4-[[2-(3-Ethoxyphenyl)phenyl]methyl]piperazin-1-yl]-N-(2,2,2-trifluoroethyl)pyridazine-3-carboxamide]
ASMS ratio (%) n = 1 [2]: 1.6% | ASMS ratio (%) n = 2 [2]: −0.9%

CCOc1cncc(-c2cc(C(=O)N3CCN(c4ccc(C(=O)NS(=O)(=O)c5ccc(NCCSc6ccccc6)c(C(F)(F)F)c5)cc4)CC3)cc(C(C)(C)C)c2)c1 [B2R038-01, 4-[4-[3-tert-Butyl-5-(5-ethoxypyridin-3-yl)benzoyl]piperazin-1-yl]-N-[4-(2-phenylsulfanylethylamino)-3-(trifluoromethyl)phenyl]sulfonylbenzamide]
ASMS ratio (%) (n = 1): 7.1% | ASMS ratio (%) (n = 2): −6.0%
